Reference: ChEMBL document CHEMBL4689842, “EUbOPEN Chemogenomics Library wave 1” (2021)

Key:
Format in all cases: toxicity, cell-based
[1] = tested on: Fibroblast; assay: Incucyte cell viability with human fibroblast; settings: 10 µM, compound concentration 10 uM
[2] = tested on: HEK-293T; assay: Incucyte cell viability with HEK293T; settings: human, 10 µM, compound concentration 10 uM
[3] = tested on: U2OS; assay: Incucyte cell viability with U2OS; settings: human, 10 µM, compound concentration 10 uM
[4] = 0 h, replicate number 1, timepoint 0 hours
[5] = 6 h, replicate number 1, timepoint 6 hours
[6] = 12 h, replicate number 1, timepoint 12 hours
[7] = 18 h, replicate number 1, timepoint 18 hours
[8] = 24 h, replicate number 1, timepoint 24 hours
[9] = 24 h, replicate number 2, timepoint 24 hours
[10] = 0 h, replicate number 2, timepoint 0 hours
[11] = 12 h, replicate number 2, timepoint 12 hours
[12] = 6 h, replicate number 2, timepoint 6 hours
[13] = 18 h, replicate number 2, timepoint 18 hours
Further: filed as whole numbers so only -1 and 0 and 1 occur.

Row | SMILES | Growth Rate [1, 4] | Growth Rate [1, 6] | Growth Rate [1, 7] | Growth Rate [1, 8] | Growth Rate [2, 4] | Growth Rate [2, 9] | Growth Rate [3, 4] | Growth Rate [3, 10] | Growth Rate [3, 5] | Growth Rate [3, 6] | Growth Rate [3, 7] | Growth Rate [3, 8] | Growth Rate [2, 5] | Growth Rate [2, 6] | Growth Rate [2, 7] | Growth Rate [2, 8] | also measured
1 | CC[C@@H]1CN(C(=O)NCC(F)(F)F)C[C@@H]1c1cnc2cnc3[nH]ccc3n12 [UPADACITINIB] | 0 | 1 | 1 | 1 | 0 | 1 | 0 | 1 | 0 | 0 | 0 | 0 |  |  |  |  | Growth Rate [1, 5]: 1; Growth Rate [3, 11]: 1
2 | O=C(NNS(=O)(=O)c1ccccc1)c1cc(-c2ccnnc2)ccc1F [WM-2474] | 0 | 1 | 1 | 1 | 0 | 1 | 1 | 0 | 0 | 0 | 0 | 1 | 1 | 1 | 1 | 0 | Growth Rate [1, 12]: 0; Growth Rate [3, 9]: 0
3 | CC(C)(Cc1ccccc1)NCC(O)c1ccc(O)c(NS(C)(=O)=O)c1.Cl (centres undefined) [ZINTEROL HYDROCHLORIDE] |  |  |  |  | 0 | 0 |  |  | 0 | 1 | 0 | 1 | 1 | 1 | 1 | 1 | Growth Rate [1, 11]: 1; Growth Rate [1, 13]: 1; Growth Rate [1, 9]: 1; Growth Rate [2, 12]: 0; Growth Rate [2, 11]: 0; Growth Rate [2, 13]: 0; Growth Rate [3, 13]: 1
